Data as given in ChEMBL document CHEMBL4613211, “Aurone: A biologically attractive scaffold as anticancer agent” (Eur J Med Chem, 2019).
pIC50: −log10 of the molar value.

Legend:
[1] = system: DU-145; test: Growth inhibition of human DU145 cells at 10 uM after 48 hrs by sulforhodamine B assay relative to control; assay type: functional; details: DU-145, 48 h, read-out: GI
[2] = system: KM12; test: Growth inhibition of human KM12 cells at 10 uM after 48 hrs by sulforhodamine B assay relative to control; assay type: functional; details: KM12, 48 h, read-out: GI
[3] = system: NCI-H322M; test: Growth inhibition of human NCI-H322M cells at 10 uM after 48 hrs by sulforhodamine B assay relative to control; assay type: functional; details: read-out: GI
[4] = system: SW-620; test: Growth inhibition of human SW620 cells at 10 uM after 48 hrs by sulforhodamine B assay relative to control; assay type: functional; details: SW-620, 48 h, read-out: GI
[5] = system: NCI-H226; test: Growth inhibition of human NCI-H226 cells at 10 uM after 48 hrs by sulforhodamine B assay relative to control; assay type: functional; details: NCI-H226, 48 h, read-out: GI
[6] = system: MDA-MB-231; test: Growth inhibition of human MDA-MB-231 cells at 10 uM after 48 hrs by sulforhodamine B assay relative to control; assay type: functional; details: MDA-MB-231, 48 h, read-out: GI
[7] = system: HCC 2998; test: Growth inhibition of human HCC2998 cells at 10 uM after 48 hrs by sulforhodamine B assay relative to control; assay type: functional; details: HCC 2998, 48 h, read-out: GI
[8] = system: UACC-62; test: Growth inhibition of human UACC62 cells at 10 uM after 48 hrs by sulforhodamine B assay relative to control; assay type: functional; details: UACC-62, 48 h, read-out: GI
[9] = system: OVCAR-4; test: Growth inhibition of human OVCAR4 cells at 10 uM after 48 hrs by sulforhodamine B assay relative to control; assay type: functional; details: OVCAR-4, 48 h, read-out: GI
[10] = system: ACHN; test: Growth inhibition of human ACHN cells at 10 uM after 48 hrs by sulforhodamine B assay relative to control; assay type: functional; details: read-out: GI
[11] = system: MOLT-4; test: Growth inhibition of human MOLT4 cells at 10 uM after 48 hrs by sulforhodamine B assay relative to control; assay type: functional; details: MOLT-4, 48 h, read-out: GI
[12] = system: EKVX; test: Growth inhibition of human EKVX cells at 10 uM after 48 hrs by sulforhodamine B assay relative to control; assay type: functional; details: read-out: GI
[13] = system: Hs-578T; test: Growth inhibition of human Hs 578T cells at 10 uM after 48 hrs by sulforhodamine B assay relative to control; assay type: functional; details: read-out: GI
[14] = system: NCI/ADR-RES; test: Growth inhibition of human NCI-ADR-RES cells at 10 uM after 48 hrs by sulforhodamine B assay relative to control; assay type: functional; details: read-out: GI
[15] = system: TK-10; test: Growth inhibition of human TK10 cells at 10 uM after 48 hrs by sulforhodamine B assay relative to control; assay type: functional; details: TK-10, 48 h, read-out: GI
[16] = system: SF-539; test: Growth inhibition of human SF539 cells at 10 uM after 48 hrs by sulforhodamine B assay relative to control; assay type: functional; details: SF-539, 48 h, read-out: GI
[17] = system: U-251; test: Growth inhibition of human U251 cells at 10 uM after 48 hrs by sulforhodamine B assay relative to control; assay type: functional; details: U-251, 48 h, read-out: GI
[18] = system: SNB-19; test: Growth inhibition of human SNB19 cells at 10 uM after 48 hrs by sulforhodamine B assay relative to control; assay type: functional; details: SNB-19, 48 h, read-out: GI
[19] = system: MCF7; test: Growth inhibition of human MCF7 cells at 10 uM after 48 hrs by sulforhodamine B assay relative to control; assay type: functional; details: MCF7, 48 h, read-out: GI
[20] = system: OVCAR-3; test: Growth inhibition of human OVCAR3 cells at 10 uM after 48 hrs by sulforhodamine B assay relative to control; assay type: functional; details: OVCAR-3, 48 h, read-out: GI
[21] = system: CAKI-1; test: Growth inhibition of human CAKI-1 cells at 10 uM after 48 hrs by sulforhodamine B assay relative to control; assay type: functional; details: CAKI-1, 48 h, read-out: GI
[22] = system: NCI-H23; test: Growth inhibition of human NCI-H23 cells at 10 uM after 48 hrs by sulforhodamine B assay relative to control; assay type: functional; details: NCI-H23, 48 h, read-out: GI
[23] = system: UO-31; test: Growth inhibition of human UO31 cells at 10 uM after 48 hrs by sulforhodamine B assay relative to control; assay type: functional; details: UO-31, 48 h, read-out: GI
[24] = target: Cyclin-dependent kinase 2 (Homo sapiens, UniProt P24941); test: Inhibition of CDK2 (unknown origin)

Structure (SMILES) | inhibition of growth at 10 µM [1] | inhibition of growth at 10 µM [2] | inhibition of growth at 10 µM [3] | inhibition of growth at 10 µM [4] | inhibition of growth at 10 µM [5] | inhibition of growth at 10 µM [6] | inhibition of growth at 10 µM [7] | inhibition of growth at 10 µM [8] | inhibition of growth at 10 µM [9] | inhibition of growth at 10 µM [10] | inhibition of growth at 10 µM [11] | inhibition of growth at 10 µM [12] | inhibition of growth at 10 µM [13] | inhibition of growth at 10 µM [14] | inhibition of growth at 10 µM [15] | inhibition of growth at 10 µM [16] | inhibition of growth at 10 µM [17] | inhibition of growth at 10 µM [18] | inhibition of growth at 10 µM [19] | inhibition of growth at 10 µM [20] | also measured
COc1ccc(/C=C2\Oc3c(c(OC)c4ccoc4c3CN3CCOCC3)C2=O)cc1 | 56.4 to 65.2% | 56.4 to 65.2% | 56.4 to 65.2% | 56.4 to 65.2% | 56.4 to 65.2% | 56.4 to 65.2% | 56.4 to 65.2% | 56.4 to 65.2% | 56.4 to 65.2% | 56.4 to 65.2% | 56.4 to 65.2% | 56.4 to 65.2% | 56.4 to 65.2% | 56.4 to 65.2% | 56.4 to 65.2% | 56.4 to 65.2% | 56.4 to 65.2% | 56.4 to 65.2% | 56.4 to 65.2% | 56.4 to 65.2% | inhibition of growth at 10 µM [21]: 56.4 to 65.2%; inhibition of growth at 10 µM [22]: 56.4 to 65.2%; inhibition of growth at 10 µM [23]: 56.4 to 65.2%
COc1ccc2c(c1)O/C(=C\c1ccc(OCC(=O)Nc3ccccc3)c(OC)c1)C2=O | 18.9 to 27.1% | 18.9 to 27.1% | 18.9 to 27.1% | 18.9 to 27.1% | 18.9 to 27.1% | 18.9 to 27.1% | 18.9 to 27.1% | 18.9 to 27.1% | 18.9 to 27.1% | 18.9 to 27.1% | 18.9 to 27.1% | 18.9 to 27.1% | 18.9 to 27.1% | 18.9 to 27.1% | 18.9 to 27.1% | 18.9 to 27.1% | 18.9 to 27.1% | 18.9 to 27.1% | 18.9 to 27.1% | 18.9 to 27.1% | inhibition of growth at 10 µM [21]: 18.9 to 27.1%; inhibition of growth at 10 µM [22]: 18.9 to 27.1%; inhibition of growth at 10 µM [23]: 18.9 to 27.1%
COc1cc(/C=C2\Oc3cc4occc4c(OC)c3C2=O)ccc1OCC(=O)Nc1ccccc1 | 67.1 to 79.6% | 67.1 to 79.6% | 67.1 to 79.6% | 67.1 to 79.6% | 67.1 to 79.6% | 67.1 to 79.6% | 67.1 to 79.6% | 67.1 to 79.6% | 67.1 to 79.6% | 67.1 to 79.6% | 67.1 to 79.6% | 67.1 to 79.6% | 67.1 to 79.6% | 67.1 to 79.6% | 67.1 to 79.6% | 67.1 to 79.6% | 67.1 to 79.6% | 67.1 to 79.6% | 67.1 to 79.6% | 67.1 to 79.6% | pIC50 [24]: 5.95; inhibition of growth at 10 µM [21]: 67.1 to 79.6%; inhibition of growth at 10 µM [22]: 67.1 to 79.6%; inhibition of growth at 10 µM [23]: 67.1 to 79.6%
